Laboratory results from PMC10247784, “Physiological activation of human and mouse bitter taste receptors by bile acids” (Communications Biology, 2023).
Several values for one entry are separate records, joined by “and”; a condition that tells them apart may be missing. Equal values may be shown once.

Target: T1, human TAS2R1 (Homo sapiens, UniProt Q9NYW7)
T1 construct: expressed in transfected cells; host or cells: HEK293T-Gα16gust44
T1 sequence (Q9NYW7 1-299): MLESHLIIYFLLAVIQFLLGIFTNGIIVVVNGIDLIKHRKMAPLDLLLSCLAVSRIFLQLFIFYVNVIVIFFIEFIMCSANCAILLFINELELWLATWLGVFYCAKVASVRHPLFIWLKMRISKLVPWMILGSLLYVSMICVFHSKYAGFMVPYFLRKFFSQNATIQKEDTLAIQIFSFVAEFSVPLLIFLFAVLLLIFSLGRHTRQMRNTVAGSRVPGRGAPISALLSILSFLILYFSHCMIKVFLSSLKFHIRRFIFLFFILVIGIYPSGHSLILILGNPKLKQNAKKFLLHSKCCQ
Test: Calcium imaging assay (FLIPR), HEK293T-Gα16gust44 cells transfected with human TAS2R1
Assay type: cell-based
Procedure, shortened: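 Calcium responses via FLIPR in receptor-transfected HEK293T-Gα16gust44 cells (Fluo-4-AM, 2.5 mM probenecid), after mock-signal subtraction and normalization to baseline and buffer (ΔF/F). Threshold concentration is the lowest dose differing from mock cells at p < 0.01 (Student's t-test), from three biological replicates in duplicate.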

Structure (SMILES): C[C@H](CCC(=O)O)[C@H]1CC[C@H]2[C@@H]3CC[C@@H]4C[C@H](O)CC[C@]4(C)[C@H]3CC[C@]12C [Lithocholic Acid, lithocholic acid]
- Efficacy = maximal amplitude (ΔF/F) (TAS2R1, bile acids, mean): 0.1221
- Efficacy (maximal amplitude ΔF/F), individual data points (TAS2R1, bile acids, single replicates, listed as LCA): 0.1505 and 0.1173 and 0.0984
- RLU (Time 0 s): 0 RLU
- RLU (Time 2.015 s): -14.5951 RLU
- RLU (Time 4.015 s): -7.128 RLU
- RLU (Time 6.015 s): 1.224 RLU
- RLU (Time 8.015 s): 0.3531 RLU
- RLU (Time 12.015 s): -16.4638 RLU
- RLU (Time 14.015 s): -4.132 RLU
- RLU (Time 16.015 s): -20.8125 RLU
- RLU (Time 18.015 s): 1.1121 RLU
- RLU (Time 18.796 s): 25.7864 RLU
- RLU (Time 20.796 s): 69.0707 RLU
- RLU (Time 22.796 s): 111.584 RLU
- RLU (Time 24.796 s): 140.624 RLU
- RLU (Time 26.796 s): 217.83 RLU
- RLU (Time 28.796 s): 298.948 RLU
- RLU (Time 30.796 s): 381.71 RLU
- RLU (Time 32.796 s): 449.564 RLU
- RLU (Time 34.796 s): 475.411 RLU
- RLU (Time 36.796 s): 563.041 RLU
- RLU (Time 38.796 s): 583.488 RLU
- RLU (Time 40.796 s): 612.54 RLU
- RLU (Time 42.796 s): 644.654 RLU
- RLU (Time 44.796 s): 679.197 RLU
- RLU (Time 46.796 s): 695.288 RLU
- RLU (Time 48.796 s): 701.461 RLU
- RLU (Time 50.796 s): 756.471 RLU
- RLU (Time 52.796 s): 734.503 RLU
- RLU (Time 54.796 s): 776.344 RLU
- RLU (Time 56.796 s): 818.875 RLU
- RLU (Time 58.796 s): 815.634 RLU
- RLU (Time 60.796 s): 814.863 RLU
- RLU (Time 62.796 s): 815.671 RLU
- RLU (Time 64.796 s): 814.539 RLU
- RLU (Time 66.796 s): 840.236 RLU
- RLU (Time 68.796 s): 839.926 RLU
- RLU (Time 70.796 s): 857.451 RLU
- RLU (Time 72.796 s): 860.887 RLU
- RLU (Time 74.796 s): 876.325 RLU
- RLU (Time 76.796 s): 873.737 RLU
- RLU (Time 78.796 s): 889.618 RLU
- RLU (Time 80.796 s): 892.644 RLU
- RLU (Time 82.796 s): 897.83 RLU
- RLU (Time 84.796 s): 886.895 RLU
- RLU (Time 86.796 s): 870.09 RLU
- RLU (Time 88.796 s): 907.185 RLU
- RLU (Time 90.796 s): 877.458 RLU
- RLU (Time 92.796 s): 891.158 RLU
- RLU (Time 94.796 s): 920.191 RLU
- RLU (Time 96.796 s): 905.406 RLU
- RLU (Time 98.796 s): 898.952 RLU
- RLU (Time 100.796 s): 892.147 RLU
- RLU (Time 102.796 s): 894.991 RLU
- RLU (Time 104.796 s): 894.373 RLU
- RLU (Time 106.796 s): 867.268 RLU
- RLU (Time 108.796 s): 872.524 RLU
- RLU (Time 110.796 s): 857.451 RLU
- RLU (Time 112.796 s): 864.824 RLU
- RLU (Time 114.796 s): 846.501 RLU
- RLU (Time 116.796 s): 868.556 RLU
- RLU (Time 118.796 s): 842.814 RLU
- RLU (Time 120.796 s): 851.852 RLU
- RLU (Time 122.796 s): 861.523 RLU
- RLU (Time 124.796 s): 851.498 RLU
- RLU (Time 126.796 s): 820.705 RLU
- RLU (Time 128.796 s): 833.006 RLU
- RLU (Time 130.796 s): 811.797 RLU
- RLU (Time 132.796 s): 786.781 RLU
- RLU (Time 134.796 s): 809.512 RLU
- RLU (Time 136.796 s): 797.52 RLU
- RLU (Time 137.562 s): 816.516 RLU
- RLU (Time 143.562 s): 785.521 RLU
- RLU (Time 149.562 s): 770.713 RLU
- RLU (Time 155.562 s): 645 RLU
- RLU (Time 161.562 s): 650.189 RLU
- RLU (Time 167.562 s): 602.288 RLU
- RLU (Time 173.562 s): 588.477 RLU
- RLU (Time 179.562 s): 570.66 RLU
- RLU (Time 185.562 s): 562.77 RLU
- RLU (Time 191.562 s): 515.911 RLU
- RLU (Time 197.562 s): 487.382 RLU
- RLU (Time 203.562 s): 468.151 RLU
- RLU (Time 209.562 s): 433.685 RLU
- RLU (Time 215.562 s): 406.858 RLU
- RLU (Time 221.562 s): 386.034 RLU
- RLU (Time 227.562 s): 427.313 RLU
- RLU (Time 233.562 s): 409.48 RLU
- RLU (Time 239.562 s): 419.888 RLU
- RLU (Time 245.562 s): 384.802 RLU
- RLU (Time 293.562 s): 250.547 RLU
- RLU (Time 299.562 s): 240.784 RLU
- RLU (calcium trace, sheet TAS2R1, Time 305.562 s): 255.305 RLU
- RLU (calcium trace, sheet TAS2R1, Time 311.562 s): 251.175 RLU
- RLU (calcium trace, sheet TAS2R1, Time 317.562 s): 242.237 RLU
- RLU (calcium trace, sheet TAS2R1, Time 323.562 s): 237.346 RLU
- RLU (calcium trace, sheet TAS2R1, Time 329.562 s): 210.072 RLU
- RLU (calcium trace, sheet TAS2R1, Time 335.562 s): 207.541 RLU
- RLU (calcium trace, sheet TAS2R1, Time 341.562 s): 224.802 RLU
- RLU (calcium trace, sheet TAS2R1, Time 347.562 s): 199.834 RLU
- RLU (calcium trace, sheet TAS2R1, Time 353.562 s): 189.761 RLU
- RLU (calcium trace, sheet TAS2R1, Time 359.562 s): 182.753 RLU
- Activation threshold concentration TAS2R1 (lowest concentration with significantly increased fluorescence vs empty vector (p < 0.01)): 0.3 µM and 0.30 µM
